The subject of data set [1] is human G-CSF (G21) promoter. Put plainly: High-throughput luciferase reporter assay, G-CSF promoter (Screen III). Particulars: for FOLD INHIBITION RELATIVE TO SOLVENT CONTROL, GCSF: Screen III inhibitors; for FOLD INHIBITION RELATIVE TO SOLVENT CONTROL, GCSF / FOLD INDUCTION RELATIVE TO SOLVENT CONTROL, GCSF: G21 cells, 6 hours; for FOLD INDUCTION RELATIVE TO SOLVENT CONTROL, GCSF: Screen III activators.

The subject of data set [2] is human growth hormone (532) promoter. Put plainly: High-throughput luciferase reporter assay, human Growth Hormone promoter (Screen III). To be noted: 532 cells, 6 hours; for FOLD INHIBITION RELATIVE TO SOLVENT CONTROL, hGH: Screen III inhibitors; for FOLD INDUCTION RELATIVE TO SOLVENT CONTROL, hGH: Screen III activators. It counts as cell-based. (Reporter assays use an easily measured gene product as a stand-in for the process of interest.)

For a further data set, the system named is MMTV (M10) promoter. Nature of the data set: High-throughput luciferase reporter assay, MMTV promoter (Screen III). It counts as cell-based, mouse. Particulars: M10 cells, 6 hours; for FOLD INHIBITION RELATIVE TO SOLVENT CONTROL, MMTV: Screen III inhibitors; for FOLD INDUCTION RELATIVE TO SOLVENT CONTROL, MMTV: Screen III activators. The procedure:
pMluci and pSV2Neo, an antibiotic resistance plasmid (112), were co-transfected into NIH/3T3 mouse fibroblast cells using the calcium phosphate precipitation method (103) with a commercially available kit (Pharmacia, Piscataway N.J.). Two days later, cells were transferred to media containing 0.4 mg/ml G418 and were grown for an additional 10-14 days. G418-resistant clones were isolated by standard methods. Once sufficient cell numbers were obtained, clones were analyzed based on several criteria: constitutive luciferase production, induction of luciferase expression by dexamethasone (1 μm, Sigma, St. Louis, Mo.), satisfactory attachment to microtiter plates used in the high-throughput screen and acceptable standard deviation in multiple luciferase expression assays (see below for assay protocol). This analysis was carried out using the luciferase assay conditions described above. Of the clones which satisfied the above criteria for the high throuphput screen, one clone, M10, was selected for use.

Bounds are passed on as bounds.

On to `CC(=O)NCCCC[C@H](NC(C)=O)C(=O)O` [compound 577], for which the “FOLD INHIBITION RELATIVE TO SOLVENT CONTROL, GCSF” value in data set [1] was determined as 0.64 fold. For the same molecule, the “FOLD INHIBITION RELATIVE TO SOLVENT CONTROL, hGH” value in data set [2] stood at 4.00 fold. In addition, in the data set on MMTV (M10) promoter, the “FOLD INHIBITION RELATIVE TO SOLVENT CONTROL, MMTV” value was 0.68 fold.
With `CN(C)c1ccc(C(=C2C=CC(=[N+](C)C)C=C2)c2ccc([N+](C)(C)C)cc2)cc1` [compound 670], the “FOLD INDUCTION RELATIVE TO SOLVENT CONTROL, GCSF” value in data set [1] was more than 3 fold. Moreover, the “FOLD INDUCTION RELATIVE TO SOLVENT CONTROL, hGH” value in data set [2] is 0.52 fold. The “FOLD INDUCTION RELATIVE TO SOLVENT CONTROL, MMTV” value in the data set on MMTV (M10) promoter amounted to 0.79 fold.
Turning to `CC(=O)c1ccc[nH]1` [compound 70], the “FOLD INDUCTION RELATIVE TO SOLVENT CONTROL, GCSF” value in data set [1] stood at 0.43 fold. In data set [2], the “FOLD INDUCTION RELATIVE TO SOLVENT CONTROL, hGH” value came out at 9.26 fold. Also, the “FOLD INDUCTION RELATIVE TO SOLVENT CONTROL, MMTV” value in the data set with MMTV (M10) promoter was 0.85 fold.
As for `Cc1c(C(=O)O)c(O)cc2c1C(=O)c1c(O)c([C@@H]3O[C@H](CO)[C@@H](O)[C@H](O)[C@H]3O)c(O)c(O)c1C2=O` [compound 240], the “FOLD INHIBITION RELATIVE TO SOLVENT CONTROL, GCSF” value in data set [1] stood at 0.63 fold. Further, the “FOLD INHIBITION RELATIVE TO SOLVENT CONTROL, hGH” value in data set [2] came to 5.26 fold. Also, the “FOLD INHIBITION RELATIVE TO SOLVENT CONTROL, MMTV” value in the data set on MMTV (M10) promoter turned out to be 0.80 fold.
With `O=C(Nc1cccc(C2=NCCN2)c1)Nc1cccc(C2=NCCN2)c1` [compound 1598], the “FOLD INDUCTION RELATIVE TO SOLVENT CONTROL, GCSF” value in data set [1] turned out to be 0.72 fold. Also, in data set [2], the “FOLD INDUCTION RELATIVE TO SOLVENT CONTROL, hGH” value is 5.32 fold. For the same molecule, the “FOLD INDUCTION RELATIVE TO SOLVENT CONTROL, MMTV” value in the data set on MMTV (M10) promoter is recorded as 1.27 fold.
Consider `Cc1cc(C2(c3cc(C)c(O)c(CN(CC(=O)O)CC(=O)O)c3)OC(=O)c3ccccc32)cc(CN(CC(=O)O)CC(=O)O)c1O` [compound 1773], for which the “FOLD INHIBITION RELATIVE TO SOLVENT CONTROL, GCSF” value in data set [1] turned out to be 0.62 fold. Further, the “FOLD INHIBITION RELATIVE TO SOLVENT CONTROL, hGH” value in data set [2] is 10.00 fold. Moreover, the “FOLD INHIBITION RELATIVE TO SOLVENT CONTROL, MMTV” value in the data set on MMTV (M10) promoter is recorded as 0.67 fold.
For `Nc1c2ccccc2nc2ccccc12` [compound 1904], the “FOLD INDUCTION RELATIVE TO SOLVENT CONTROL, GCSF” value in data set [1] amounted to 4.12 fold. In addition, the “FOLD INDUCTION RELATIVE TO SOLVENT CONTROL, hGH” value in data set [2] is given as 0.54 fold. Further, in the data set on MMTV (M10) promoter, the “FOLD INDUCTION RELATIVE TO SOLVENT CONTROL, MMTV” value turned out to be 0.82 fold.
For the molecule `Cc1ccc(C(=O)c2ccccc2N)cc1` [compound 1384], the “FOLD INDUCTION RELATIVE TO SOLVENT CONTROL, GCSF” value in data set [1] is given as 1.33 fold. Further, the “FOLD INDUCTION RELATIVE TO SOLVENT CONTROL, hGH” value in data set [2] is given as 0.50 fold. The “FOLD INDUCTION RELATIVE TO SOLVENT CONTROL, MMTV” value in the data set with MMTV (M10) promoter was found to be 2.43 fold.
Take `Nc1c(O)c(S(=O)(=O)O)c(O)c2c1C(=O)c1ccccc1C2=O` [compound 640]: the “FOLD INHIBITION RELATIVE TO SOLVENT CONTROL, GCSF” value in data set [1] came out at 0.64 fold. In data set [2], the “FOLD INHIBITION RELATIVE TO SOLVENT CONTROL, hGH” value is reported as 5.00 fold. In the data set with MMTV (M10) promoter, the “FOLD INHIBITION RELATIVE TO SOLVENT CONTROL, MMTV” value was determined as 0.59 fold.
On the same counts, the results for `NCCC(=O)N[C@@H](Cc1cnc[nH]1)C(=O)O` [compound 1771] are 0.71 fold, 10.00 fold and 0.72 fold.
For the molecule `Brc1cccc(-c2ccccc2)c1` [compound 1994], the “FOLD INDUCTION RELATIVE TO SOLVENT CONTROL, GCSF” value in data set [1] was found to be 3.29 fold. Also, the “FOLD INDUCTION RELATIVE TO SOLVENT CONTROL, hGH” value in data set [2] was 0.34 fold. The “FOLD INDUCTION RELATIVE TO SOLVENT CONTROL, MMTV” value in the data set with MMTV (M10) promoter is reported as 0.63 fold.
Taken in the same sequence, the figures for `Nc1ccccc1SSc1ccccc1N` [compound 1482] were 3.99 fold, 0.54 fold and 1.07 fold.
On the same counts, the results for `CON(C)C(=O)Nc1ccc(Cl)cc1` [compound 552] are 0.81 fold, 5.31 fold and 0.86 fold.
`CN(C)c1ccc(C(=N)c2ccc(N(C)C)cc2)cc1` [compound 183]: the “FOLD INHIBITION RELATIVE TO SOLVENT CONTROL, GCSF” value in data set [1] amounted to 0.72 fold. In data set [2], the “FOLD INHIBITION RELATIVE TO SOLVENT CONTROL, hGH” value amounted to 4.00 fold. In the data set on MMTV (M10) promoter, the “FOLD INHIBITION RELATIVE TO SOLVENT CONTROL, MMTV” value came to 0.70 fold.
For `Nc1c(Cl)c(Cl)nc(C(=O)O)c1Cl` [compound 1561], in data set [1], the “FOLD INDUCTION RELATIVE TO SOLVENT CONTROL, GCSF” value was determined as 0.23 fold. In data set [2], the “FOLD INDUCTION RELATIVE TO SOLVENT CONTROL, hGH” value worked out at 8.05 fold. For the same molecule, in the data set with MMTV (M10) promoter, the “FOLD INDUCTION RELATIVE TO SOLVENT CONTROL, MMTV” value was 0.48 fold.
`O=NN(O)c1ccccc1` [Chemical #1783, Cupferron]: the “scored as positive in repeat assays, G-CSF” value in data set [1] (48 independent luciferase assays performed on the same day) is given as “scored as positive only in half of the 48 repeat assays”. Moreover, in data set [1], the “FOLD INDUCTION RELATIVE TO SOLVENT CONTROL, GCSF” value was found to be 6.55 fold. Also, the “FOLD INDUCTION RELATIVE TO SOLVENT CONTROL, hGH” value in data set [2] came out at 0.32 fold. Besides, in the data set with MMTV (M10) promoter, the “FOLD INDUCTION RELATIVE TO SOLVENT CONTROL, MMTV” value worked out at 0.89 fold.
Turning to `O=C(O)c1cc(C(F)(F)F)ccc1C(F)(F)F` [compound 1655], the “FOLD INHIBITION RELATIVE TO SOLVENT CONTROL, GCSF” value in data set [1] is reported as 0.54 fold. Further, the “FOLD INHIBITION RELATIVE TO SOLVENT CONTROL, hGH” value in data set [2] is on record as 4.76 fold. The “FOLD INHIBITION RELATIVE TO SOLVENT CONTROL, MMTV” value in the data set with MMTV (M10) promoter stood at 0.81 fold.

(Values after US6203976A, “Methods of preparing compositions comprising chemicals capable of transcriptional modulation” (OSI Pharmaceuticals, Inc., priority 1994, dated 2001).)
